In patent US5317010A, “Parathyroid hormone analogues substituted at AA 25, 26, 27, and use in osteoporosis treatment” (Pang; Peter K. T., priority 1991, dated 1994):
“Also recorded” adds a separate entry of the source. Ends that are not written are not given here.

Key:
Sprague-Dawley rats = test: In vivo blood pressure measurement in anaesthetized rats
Method: Sprague-Dawley (S-D) rats were anaesthetized with pentobarbital and a cannula was inserted into the carotid artery. The rats were kept sedated during the procedure and were injected with PTH peptides only when the blood pressure of the rats were stable. Peptides were injected through a cannula in the jugular vein, in amounts of 1, 3 and 5 or more μg/kg and the mean systolic and diastolic blood pressure was monitored continuously throughout the procedure. Results are reported with comparison to bPTH-(1-34).

[1] = tested on: rat tail artery helical strip; test: In vitro rat tail artery helical strip tension assay; settings: precontracted with AVP, FIG. 20
Source text: We have developed a method for modeling the hypotensive effects of natural and synthetic chemical compounds using helically cut tail arteries from Sprague-Dawley rats in a Sawyer-Bartlestone chamber, measuring the change in tension with a force displacement transducer. This method and the effect of bovine PTH-(1-34) in this system is described in Blood Vessels, 22, 57 (1985). […] FIGS. 12, 16 and 20 illustrate the effect of the PTH analogues of this invention as measured using this in vitro technique. Alternatively, the strips may be precontracted using other pressor substances such as norepinephrine (NE) or KCl.
The assay was performed according to Pang et al., Blood Vessels, 22, 57 (1985). Sprague-Dawley rats were anaesthetized with pentobarbital and the tail artery excised and placed in ice-cold Krebs-Hanseleit solution (KHS) oxygenated with 95% O2, 5% CO2. […] The force generated by the strips was measured with a Grass FT03 force displacement transducer and recorded on a polygraph. […]
One to two minutes prior to addition of a peptide, the strips were contracted by addition of either arginine vasopressin (AVP), potassium chloride (KCl) or norepinephrine (NE) to the bath. The peptide was then added to the bath and the degree of relaxation measured. […] Drug dose is calculated on the basis of the final concentration in the bath solution.

[2] = tested on: right atrial tissue of Sprague-Dawley rats; test: In vitro atrial contractility and contraction rate measurement; settings: Sprague-Dawley rat right atrium; for effect on contraction rate of right atrial tissue: FIGS. 24-25
Source text: We have also developed a method of modeling the chronotropic effects of natural and synthetic chemicals using the right atrium from Sprague-Dawleyrats and measuring the change in the force and rate of atrium contraction. This method and the effects of bovine PTH (1-34) in this system are described in Tenner et al, The Canadian Journal of Physiology and Pharmacology, Volume 61, No. 10 (1983) pp. 1162-1167. […] FIGS. 24-25 illustrate the effect of the PTH analogues of this invention as measured using this in vitro technique.
The assay was performed according to Tenner et al., Canadian Journal of Physiology and Pharmacology, Vol. 61, No. 10 (1983) pp. 1162-1167. Sprague-Dawley rats weighing between 100 and 250 g were treated with heparin (500 IU, i.p.) 15 minutes prior to decapitation. Thoracotomies were performed and the heart rapidly excised and placed in a cold physiological salt solution (PSS) having the following composition (in millimolar): NaCl, 120; KCl, 5.63; CaCl2, 2.0; MgCl2, 2.1; NAHCO3, 25.0; dextrose, 9.7. The solution was continuously aerated by a gas mixture of 95% O2 -5% CO2. The right atrium was isolated and suspended in a tissue chamber containing 20 mL of PSS at 37° C., pH 7.4. Atria were allowed to equilibrate for 1 hr under a resting tension of 1 g.
The atrial rate and force were determined from contractions recorded by a Grass FT.03 force-displacement transducer and a Grass model 79 polygraph. The Basial atrial rate f or control atria (as determined by counting the frequency of contractions) was 258±7 bpm (n=29). Basal developed force of the spontaneously beating right atria was 0.33±0.06 g (n=10) . Dose-response curves for the peptides were obtained by cumulative addition of the respective peptides. Drug dose is calculated on the basis of the final concentration in the bath solution.

[3] = tested on: UMR-106 rat osteosarcoma cells; test: Intracellular free calcium concentration (FURA-2) with KCl stimulation; assay type: cell-based; settings: cultured UMR osteoblast cells, in the presence of KCl
Method: Because osteoporosis is a progressive syndrome, a model is required and the use of cultured osteoblasts of the UMR-106.rat osteosarcoma cells, ATCC CRL 1661 have been used as the model. Uptake of calcium in these cells has been monitored using the FURA-2 method, wherein a fluorescent dye which is specific for calcium is used as a marker for calcium change into the cells. Cells are incubated with 1-10 μM of the acetomethoxy ester of FURA-2 for 30-60 minutes. Upon uptake, the ester is hydrolyzed to release free FURA-2, which selectively binds free Ca^2+. FURA-2 has a characteristic fluorescence spectrum, which wavelength is shifted when the dye binds to free Ca^2+. According to the method, Ca^2+ which is present in the cell can be quantified by exciting the dye at two different wavelengths, 340 and 380 nm. The emission fluorescence is measured at 510 nm. […] It is conventional to report the concentration of calcium within the cell in terms of the fluorescence ratio, the 340/380 ratio. […]
Intracellular free calcium concentration was measured using the fluorescent dye FURA-2 according to the method of Grynkiewicz et al., J. Biol. Chem., 260, 3440 (1985) and Pang et al., P. N. A. S. (USA), 87, 623 (1990). […] Quantitation is obtained by exciting the dye at two different wavelengths, preferably 340 and 380 nm and measuring the fluorescent emission at 510 nm. […]

In the case of “SVSEIQLMHNLGKHLNSMERVEWLAAALQDVHNF [Cs221]”, the “effect on mean arterial blood pressure” value (Sprague-Dawley rats; anesthetized Sprague-Dawley rats, FIGS. 15, 19) is reported as “least decrease in blood pressure”, the “relaxation of rat tail artery helical strips” value [1] is reported as “least relaxation” and the “effect on contractility of right atrial tissue” value ([2]; FIG. 24) is reported as “minimal effect”. For the same molecule, the “effect on contraction rate of right atrial tissue” value [2] was “minimal effect” and the “effect on KCl-induced intracellular [Ca2+]i increase” value [3] was “comparable to the inhibition of intracellular [Ca^2+ ]i increases by hPTH; also recorded: lower intracellular calcium increments”.

With “PTH: parathyroid hormone (native PTH); in FIGS. 14 a-d it is bPTH-(1-34) [reference compound]” the “condition of rats due to blood pressure” value (Sprague-Dawley rats; 5 μg/kg, Sprague-Dawley rats) was “essentially moribund” and the “effect on KCl-induced intracellular [Ca2+]i increase” value [3] was “inhibits intracellar [Ca^2+ ]i increases”.

B1: Cs2001: human PTH 1-84, no substitution (SEQ ID NO:2) (peptide)
chain: SVSEIQLMHNLGKHLNSMERVEWLRKKLQDVHNFVALGASIAYRDGSSQRPRKKEDNVLVESHQKSLGEADKADVDVLIKAKPQ
In the case of B1, the “effect on contraction rate of right atrial tissue” value [2] is reported as “increase the contraction rate”.
